Data as given in patent US20080063628A1, “METHODS TO PROMOTE CELL DIFFERENTIATION” (priority 2006, published 2008).

Legend:
[1] = system: late passage (P14) pancreatic-derived stromal cell line; assay: Two sequential low dose trichostatin A treatments, gene expression by RT-PCR (Example 7); format: cell-based, human; conditions: for HNF (HNF-3 beta) gene expression / Insulin gene expression / Pdx-1 gene expression / glucagon gene expression: 1.25 μM 0-24 h + 96-120 h
Experimental: (§1) Several cell lines obtained from different amniotic fluid specimens (see Example 14) and pancreas donors (see Example 13) were tested with similar results. Two lines at similar passage number but derived from different amniotic fluid specimens are shown in Table VII-A and Table VII-B for this example. One of these cell lines was also used in examples 2 and 4 above. In addition, this example also contains comparison data in Table VII-C and Table VII-D for a single pancreatic-derived stromal line grown to early and late passage number.
(§2) Amniotic fluid derived cells or pancreatic-derived stromal cells were seeded into 24-well tissue culture plates at a density of 5000/cm^2 and cultured in AMNIOMAX (Invitrogen) or DMEM with 10% FBS respectively under standard cell culture conditions until confluent. After the cells reached confluency, amniotic fluid derived cells were treated at time 0 hours with a dose of 500 nM trichostatin A, and pancreatic-derived stromal cells were treated with a dose of 1.25 μM trichostatin A solubilized in DMSO and medium. At time 24 hours, cell cultures underwent a complete medium change to remove all traces of trichostatin A. At time 96 hours, cell cultures were re-fed with fresh medium and received a second dose of trichostatin A at the same concentration as used previously. At time 120 hours, cell cultures again underwent a complete medium change and were cultured for an additional 24 hours or […] total incubation time.
(§3) Samples were taken daily for RT-PCR at the times indicated in Table VII-A to D. The culture medium was removed, and samples were rinsed in PBS then collected in RLT with β-mercaptoethanol (Qiagen). RNA was purified using the RNeasy Mini Kit (Qiagen) and RNA quantity and quality were determined using a spectrophotometer. cDNA was made using the iScript cDNA synthesis kit (BioRad).
(§4) Samples of 20 ng cDNA were used in each reaction to determine the expression levels of the following genes in amniotic fluid-derived cells: Gata1, HNF-3 beta, Pdx-1, insulin, and Sox17. Similarly, samples of 20 ng cDNA were used in each reaction to determine the expression level of the following genes in pancreatic-derived cells: glucagon, HNF-3 beta, insulin and Pdx-1. Real-Time PCR was performed on the Applied Biosystems 7500, and data was analyzed using the accompanying software according to the methods described in Example 15.
(§5) Real-time PCR amplifcation and quantitative analysis. Unless otherwise stated, all reagents were purchased from Applied Biosystems. Real-time PCR reactions were performed using the ABI PRISM™ 7500 Sequence Detection System. TAQMAN™ FAST UNIVERSAL PCR MASTER MIX™ (ABI, CA) was used with 20 ng of reverse transcribed RNA in a total reaction volume of 20 μl. Each cDNA sample was run in duplicate to allow correction of pipetting errors. Primers and FAM-labeled TAQMAN™ probes were used at concentrations of 200 nM. The level of expression for each target gene was normalized using the pre-developed Applied Biosystem's human glyceraldehyde-3-phosphate dehydrogenase (GAPDH) endogenous control kit. Primers and probes were designed using either ABI PRISM PRIMER EXPRESS™ software or a pre-developed ABI gene analysis kit. For each gene, either one of the primers or the probe were designed to be exon-boundary spanning. This eliminated the possibility of the primers/probe binding to any genomic DNA present. The primer and probe sets are listed as follows: Pdx-1 (Hs00426216), Insulin (Hs00355773), glucagon (Hs00174967), and FoxA2 (HNF 3-beta) (Hs00232764). The remaining primers were designed using the PRIMERS program (ABI, CA). After an initial 95° C. incubation for 20 sec, samples were cycled 40 times in two stages: a denaturation step at 95° C. for 3 sec, followed by an annealing/extension step at 60° C. for 30 sec. […]

[2] = system: second amniotic fluid-derived cell line; assay: as above; format: cell-based, human; conditions: for Gata1 gene expression / HNF (HNF-3 beta) gene expression / Insulin gene expression / Pdx-1 gene expression / sox17 gene expression: 500 nM 0-24 h + 96-120 h
Experimental: as §1, §2, §3, §4, §5

[3] = 1.25 μM, after the second treatment cycle
[4] = 1.25 μM, following first treatment

CC(/C=C/C(=O)NO)=C\[C@@H](C)C(=O)c1ccc(N(C)C)cc1 [trichostatin A]
HNF (HNF-3 beta) gene expression ([1]; 24 hrs): + (detectable between 35 and 40 cycles by RT-PCR) | Insulin gene expression ([1]; 24 hrs): nd (not detectable at >40 cycles by RT-PCR) | Pdx-1 gene expression ([1]; 24 hrs): +++ (detectable at less than 35 cycles by RT-PCR with SE less than 0.9) | glucagon gene expression ([1]; 24 hrs): +++ (detectable at less than 35 cycles by RT-PCR with SE less than 0.9) | HNF (HNF-3 beta) gene expression ([1]; 48 hrs): nd (not detectable at >40 cycles by RT-PCR) | Pdx-1 gene expression ([1]; 48 hrs): nd (not detectable at >40 cycles by RT-PCR) | glucagon gene expression ([1]; 48 hrs): +++ (detectable at less than 35 cycles by RT-PCR with SE less than 0.9) | HNF (HNF-3 beta) gene expression ([1]; 72 hrs): nd (not detectable at >40 cycles by RT-PCR) | Insulin gene expression ([1]; 72 hrs): nd (not detectable at >40 cycles by RT-PCR) | Pdx-1 gene expression ([1]; 72 hrs): nd (not detectable at >40 cycles by RT-PCR) | glucagon gene expression ([1]; 72 hrs): + (detectable between 35 and 40 cycles by RT-PCR) | HNF (HNF-3 beta) gene expression ([1]; 96 hrs): nd (not detectable at >40 cycles by RT-PCR) | Insulin gene expression ([1]; 96 hrs): nd (not detectable at >40 cycles by RT-PCR) | Pdx-1 gene expression ([1]; 96 hrs): nd (not detectable at >40 cycles by RT-PCR) | glucagon gene expression ([1]; 96 hrs): nd (not detectable at >40 cycles by RT-PCR) | HNF (HNF-3 beta) gene expression ([1]; 120 hrs): +++ (detectable at less than 35 cycles by RT-PCR with SE less than 0.9) | Insulin gene expression ([1]; 120 hrs): nd (not detectable at >40 cycles by RT-PCR) | Pdx-1 gene expression ([1]; 120 hrs): ++ (detectable at less than 35 cycles by RT-PCR with SE greater than 0.9) | HNF (HNF-3 beta) gene expression ([1]; 144 hrs): nd (not detectable at >40 cycles by RT-PCR) | Insulin gene expression ([1]; 144 hrs): nd (not detectable at >40 cycles by RT-PCR) | Pdx-1 gene expression ([1]; 144 hrs): nd (not detectable at >40 cycles by RT-PCR) | glucagon gene expression ([1]; 144 hrs): + (detectable between 35 and 40 cycles by RT-PCR) | HNF-3 beta RT-PCR detection cycle [1, 3]: 34 cycles | Pdx-1 RT-PCR detection cycle [1, 3]: 34 cycles | glucagon RT-PCR detection cycle [1, 3]: 36 cycles | HNF-3β RT-PCR detection cycle [1, 4]: 33 cycles | Pdx-1 RT-PCR detection cycle [1, 4]: 33 cycles | glucagon RT-PCR detection cycle [1, 4]: 33 cycles | Pdx-1 RT-PCR detection cycle ([2]; 0.5 μM, 24 hours): 39 cycles | Insulin RT-PCR detection cycle ([2]; 0.5 μM, 72 hours and remainder of the experiment): 34 cycles | HNF-3 beta RT-PCR detection cycle ([2]; 0.5 μM, until 72 hours): 34 cycles | Gata1 gene expression ([2]; 24 hrs): nd (not detectable at >40 cycles by RT-PCR) | HNF (HNF-3 beta) gene expression ([2]; 24 hrs): +++ (detectable at less than 35 cycles RT-PCR with SE less than 0.9) | Insulin gene expression ([2]; 24 hrs): nd (not detectable at >40 cycles by RT-PCR) | Pdx-1 gene expression ([2]; 24 hrs): + (detectable between 35 and 40 cycles RT-PCR) | sox17 gene expression ([2]; 24 hrs): +++ (detectable at less than 35 cycles RT-PCR with SE less than 0.9) | Gata1 gene expression ([2]; 48 hrs): nd (not detectable at >40 cycles by RT-PCR) | HNF (HNF-3 beta) gene expression ([2]; 48 hrs): +++ (detectable at less than 35 cycles RT-PCR with SE less than 0.9) | Insulin gene expression ([2]; 48 hrs): nd (not detectable at >40 cycles by RT-PCR) | Pdx-1 gene expression ([2]; 48 hrs): nd (not detectable at >40 cycles by RT-PCR) | sox17 gene expression ([2]; 48 hrs): +++ (detectable at less than 35 cycles RT-PCR with SE less than 0.9) | Gata1 gene expression ([2]; 72 hrs): nd (not detectable at >40 cycles by RT-PCR) | HNF (HNF-3 beta) gene expression ([2]; 72 hrs): +++ (detectable at less than 35 cycles RT-PCR with SE less than 0.9) | Insulin gene expression ([2]; 72 hrs): +++ (detectable at less than 35 cycles RT-PCR with SE less than 0.9) | Pdx-1 gene expression ([2]; 72 hrs): nd (not detectable at >40 cycles by RT-PCR) | sox17 gene expression ([2]; 72 hrs): +++ (detectable at less than 35 cycles RT-PCR with SE less than 0.9) | Gata1 gene expression ([2]; 96 hrs): nd (not detectable at >40 cycles by RT-PCR) | HNF (HNF-3 beta) gene expression ([2]; 96 hrs): + (detectable between 35 and 40 cycles RT-PCR) | Insulin gene expression ([2]; 96 hrs): +++ (detectable at less than 35 cycles RT-PCR with SE less than 0.9) | Pdx-1 gene expression ([2]; 96 hrs): nd (not detectable at >40 cycles by RT-PCR) | sox17 gene expression ([2]; 96 hrs): +++ (detectable at less than 35 cycles RT-PCR with SE less than 0.9) | Gata1 gene expression ([2]; 120 hrs): nd (not detectable at >40 cycles by RT-PCR) | HNF (HNF-3 beta) gene expression ([2]; 120 hrs): + (detectable between 35 and 40 cycles RT-PCR) | Insulin gene expression ([2]; 120 hrs): + (detectable between 35 and 40 cycles RT-PCR) | Pdx-1 gene expression ([2]; 120 hrs): nd (not detectable at >40 cycles by RT-PCR) | sox17 gene expression ([2]; 120 hrs): +++ (detectable at less than 35 cycles RT-PCR with SE less than 0.9) | Gata1 gene expression ([2]; 144 hrs): nd (not detectable at >40 cycles by RT-PCR) | HNF (HNF-3 beta) gene expression ([2]; 144 hrs): + (detectable between 35 and 40 cycles RT-PCR) | Insulin gene expression ([2]; 144 hrs): +++ (detectable at less than 35 cycles RT-PCR with SE less than 0.9) | Pdx-1 gene expression ([2]; 144 hrs): nd (not detectable at >40 cycles by RT-PCR) | sox17 gene expression ([2]; 144 hrs): +++ (detectable at less than 35 cycles RT-PCR with SE less than 0.9)
